Reference: patent US20210169892A1, “MODULATORS OF THE INTEGRATED STRESS PATHWAY” (Calico Life Sciences LLC, priority 2017, published 2021)

tested on: HEK293T cells carrying the ATF4 luciferase reporter; assay: ATF4-Luc assay (in vitro model of vanishing white matter disease); assay type: cell-based; details: Homo sapiens, HEK-293T; HEK293T cells with ATF4 luciferase reporter, 1 μg/mL tunicamycin, 7 hours, One Glo luminescence
Method: In order to test exemplary compounds of the invention in a cellular context, a stable VWMD cell line was first constructed. The ATF4 reporter was prepared by fusing the human full-length ATF4 5′-UTR (NCBI Accession No. BC022088.2) in front of the firefly luciferase (FLuc) coding sequence lacking the initiator methionine as described in Sidrauski et al (eLife 2013). The construct was used to produce recombinant retroviruses using standard methods and the resulting viral supernatant was used to transduce HEK293T cells, which were then subsequently selected with puromycin to generate a stable cell line.
HEK293T cells carrying the ATF4 luciferase reporter were plated on polylysine coated 384-well plates (Greiner Bio-one) at 30,000 cells per well. Cells were treated the next day with 1 μg/mL tunicamycin and 200 nM of a compound of Formula (I) for 7 hours. Luminescence was measured using One Glo (Promega) as specified by the manufacturer. Cells were maintained in DMEM with L-glutamine supplemented with 10% heat-inactivated FBS (Gibco) and Antibiotic-Antimycotic solution (Gibco).
Table 2 below summarizes the EC50 data obtained using the ATF4-Luc assay for exemplary compounds of the invention.

SMILES	EC50
O=C(COc1ccc(Cl)c(F)c1)NC12CC(NC(=O)C3CN(S(=O)(=O)c4ccc(F)cc4)c4cc(Cl)ccc4O3)(C1)C2 (centres unmarked) [Compound 166, 6-chloro-N-{3-[2-(4-chloro-3-fluorophenoxy)acetamido]bicyclo[1.1.1]pentan-1-yl}-4-(4-fluorobenzene-1-sulfonyl)-3,4-dihydro-2H-1,4-benzoxazine-2-carboxamide]	500 to 2000 nM
COc1ccc(C(=O)N2CC(C(=O)NC34CC(NC(=O)COc5ccc(Cl)c(F)c5)(C3)C4)Oc3ccc(Cl)cc32)cc1 (centres unmarked) [Compound 150, 6-chloro-N-{3-[2-(4-chloro-3-fluorophenoxy)acetamido]bicyclo[1.1.1]pentan-1-yl}-4-(4-methoxybenzoyl)-3,4-dihydro-2H-1,4-benzoxazine-2-carboxamide]	250 to 500 nM
C[C@@]1(C(=O)NC23CC(NC(=O)COc4ccc(Cl)c(F)c4)(C2)C3)COc2cc3c(cc21)OC(F)(F)O3 [Compound 130, (7S)—N-{3-[2-(4-chloro-3-fluorophenoxy)acetamido]bicyclo[1.1.1]pentan-1-yl}-2,2-difluoro-7-methyl-6,7-dihydro-2H-furo[2,3-f][1,3]benzodioxole-7-carboxamide]	> 2000 nM
O=C(COc1ccc(Cl)c(F)c1)NC12CC(NC(=O)[C@H]3CCc4cc(F)ccc4O3)(C1)C2 [Compound 120, (2R)—N-{3-[2-(4-chloro-3-fluorophenoxy)acetamido]bicyclo[1.1.1]pentan-1-yl}-6-fluoro-3,4-dihydro-2H-1-benzopyran-2-carboxamide]	< 10 nM
COc1ccc(S(=O)(=O)N2CC(C(=O)NC34CC(NC(=O)COc5ccc(Cl)c(F)c5)(C3)C4)Oc3ccc(Cl)cc32)cc1 (centres unmarked) [Compound 164, 6-chloro-N-{3-[2-(4-chloro-3-fluorophenoxy)acetamido]bicyclo[1.1.1]pentan-1-yl}-4-(4-methoxybenzene-1-sulfonyl)-3,4-dihydro-2H-1,4-benzoxazine-2-carboxamide]	> 2000 nM
O=C(COc1ccc(Cl)c(F)c1)NC12CCC(NC(=O)[C@H]3COc4ccccc4O3)(CC1)[C@@H](O)C2 [Compound 126, (2R)—N-{(2S)-4-[2-(4-chloro-3-fluorophenoxy)acetamido]-2-hydroxybicyclo[2.2.2]octan-1-yl}-2,3-dihydro-1,4-benzodioxine-2-carboxamide]	< 10 nM
O=C(COc1ccc(Cl)c(F)c1)NC12CCC(NC(=O)[C@H]3CCc4cc(F)ccc4O3)(CC1)C[C@@H]2O [Compound 106, (2R)—N-{(3S)-4-[2-(4-chloro-3-fluorophenoxy)acetamido]-3-hydroxybicyclo[2.2.2]octan-1-yl}-6-fluoro-3,4-dihydro-2H-1-benzopyran-2-carboxamide]	< 10 nM
O=C(COc1ccc(Cl)c(F)c1)NC12CC(NC(=O)[C@@H]3CN(C(=O)[C@H]4C[C@H]4F)c4cc(Cl)ccc4O3)(C1)C2 (single isomer, unassigned) [Compound 144]	50 to 250 nM
Cc1nn(C)cc1S(=O)(=O)N1CC(C(=O)NC23CC(NC(=O)COc4ccc(Cl)c(F)c4)(C2)C3)Oc2ccc(Cl)cc21 (centres unmarked) [Compound 173, 6-chloro-N-{3-[2-(4-chloro-3-fluorophenoxy)acetamido]bicyclo[1.1.1]pentan-1-yl}-4-(1,3-dimethyl-1H-pyrazole-4-sulfonyl)-3,4-dihydro-2H-1,4-benzoxazine-2-carboxamide]	500 to 2000 nM
CC(C)(C)OC(=O)CN1C[C@@H](C(=O)NC23CCC(NC(=O)COc4ccc(Cl)c(F)c4)(CC2)C(O)C3)Oc2ccc(Cl)cc21 (stereo in doubt) [Compound 184, tert-butyl [(2S)-6-chloro-2-({(3S)-4-[2-(4-chloro-3-fluorophenoxy)acetamido]-3-hydroxybicyclo[2.2.2]octan-1-yl}carbamoyl)-2,3-dihydro-4H-1,4-benzoxazin-4-yl]acetate]	250 to 500 nM
O=C(COc1ccc(Cl)c(F)c1)NC12CC(NC(=O)C3CNc4cc(F)c(F)cc4O3)(C1)C2 (centres unmarked) [Compound 108, N-{3-[2-(4-chloro-3-fluorophenoxy)acetamido]bicyclo[1.1.1]pentan-1-yl}-6,7-difluoro-3,4-dihydro-2H-1,4-benzoxazine-2-carboxamide]	< 10 nM
